This passage reports MIC results from patent publication US10934295B2, “Antimicrobials and methods of making and using same” (BIOVERSYS AG, priority 2016, dated 2021).

One assay has as its system E. coli strain ATCC25922. In words: standard microdilution assay, minimum inhibitory concentration (MIC). The assay is classed as cell-based. To be noted: Escherichia coli. How it is done: (§1) The in vitro activity of the compounds of the present disclosure can be determined. Antimicrobial testing is typically performed to determine the minimum inhibitory concentration (MIC). Minimum inhibitory concentrations (MICs) are determined by the microdilution method in a final volume of 100 μl according to protocols outlined by The Clinical and Laboratory Standards Institute (CLSI). Performance standards for reference strains are assessed within the same experimental design to maintain quality control. See, for example, Clinical Laboratory Standards Institute: Methods for dilution antimicrobial susceptibility tests for bacteria that grow aerobically M7-A8. Approved Standard-Eighth Edition. Wayne, Pa.: CLSI; December 2008; and Clinical Laboratory Standards Institute: Performance Standards for Antimicrobial Susceptibility Testing M100-S20; Approved Standard-Twentieth Edition. Wayne, Pa.: CLSI; June 2010. The compounds of the present disclosure were tested for antimicrobial activity. The Compounds 1-32 were run against Eschericia colt (E. coli) strain ATCC25922 and against Staphylococcus aureus (S. aureus) 11540 strain using a standard microdilution assay to determine minimum inhibitory concentrations (MICs). […] It will be recognized by one skilled in the art that the compounds can be assessed against other bacterial organisms and that the presentation of data for activity against Eschericia colt and Staphylococcus aureus are illustrative and in no way is intended to limit the scope of the present disclosure. The compounds of the present disclosure can be assayed against a range of other microorganisms depending upon the performance activity desired to be gathered. Furthermore, the “+” and “−” representation and the selection of a cutoff value of 16 micrograms/mL is also illustrative and in no way is intended to limit the scope of the present disclosure.

Assay [1] deals with Staphylococcus aureus (S. aureus) 11540 strain. The description is as above. The assay is classed as cell-based. On the procedure: as §1

For the molecule `C[C@H](N)CCCc1cc(Cl)c(F)c(-c2cc3cn(-c4ccc([C@@H]5CNC[C@H](CCNC(=N)N)O5)cc4)c(=O)nc3[nH]2)c1` [Compound 5], the MIC (against E. coli strain ATCC25922; in assay [1]) was not above 16 µg/mL in each case.

Turning to `C[C@H](N)CCCc1cc(Cl)c(F)c(-c2cc3cn(-c4ccc(CN[C@@H](C)CCNC(=N)N)c(S(C)(=O)=O)c4)c(=O)nc3[nH]2)c1` [Compound 6], the MIC (with E. coli strain ATCC25922; in assay [1]) was not above 16 µg/mL throughout.

With `C[C@H](N)CCCc1cc(Cl)c(F)c(-c2cc3cn(-c4ccc([C@@H]5CNC[C@@H](CCNC(=N)N)O5)cc4)c(=O)nc3[nH]2)c1` [Compound 14], the MIC (against E. coli strain ATCC25922; in assay [1]) was not above 16 µg/mL in each case.

Consider `COCCOCc1cc(-n2cc3cc(-c4cc(CCC[C@H](C)N)cc(Cl)c4F)[nH]c3nc2=O)ccc1CN[C@@H](C)CCNC(=N)N` [Compound 12], for which the MIC (in the assay on E. coli strain ATCC25922; in assay [1]) was not above 16 µg/mL each time.

On to `C[C@H](N)CCCc1cc(Cl)c(F)c(-c2cc3cn(-c4ccc([C@H]5CNC[C@H](CCNC(=N)N)N5)cc4)c(=O)nc3[nH]2)c1` [Compound 18], for which the MIC (in the assay with E. coli strain ATCC25922; in assay [1]) was not above 16 µg/mL in each case.

Take `C[C@H](N)CCCc1cc(Cl)c(F)c(-c2cc3cn(-c4cc(F)c(CO[C@H](CCNC(=N)N)CNC(=N)N)c(F)c4)c(=O)nc3[nH]2)c1` [Compound 56]: the MIC (with E. coli strain ATCC25922; in assay [1]) was not above 16 µg/mL each time.

Consider `C[C@H](N)CCCc1cc(Cl)c(F)c(-c2cc3cn(-c4ccc(N5CCNC(CCNC(=N)N)C5)cc4)c(=O)nc3[nH]2)c1` (stereo partly drawn) [Compound 7], for which the MIC (in the assay with E. coli strain ATCC25922; in assay [1]) was not above 16 µg/mL throughout.

Consider `C[C@H](N)CCCc1cc(Cl)c(F)c(-c2cc3cn(-c4ccc(CN[C@@H](C)CCNC(=N)N)c(N5CCOCC5)c4)c(=O)nc3[nH]2)c1` [Compound 16], for which the MIC (in the assay on E. coli strain ATCC25922; in assay [1]) was not above 16 µg/mL each time.

Regarding `N=C(N)NCC[C@@H]1CSC[C@@H](c2ccc(-n3cc4cc(-c5cc(CCC[C@@H](N)C6CC6)cc(Cl)c5F)[nH]c4nc3=O)cc2)N1` [Compound 29], the MIC (with E. coli strain ATCC25922; in assay [1]) was not above 16 µg/mL each time.

For the molecule `C[C@H](N)CCCc1cc(Cl)c(F)c(-c2cc3cn(-c4ccc(CO[C@H](CCNC(=N)N)CNC(=N)N)c(F)c4)c(=O)nc3[nH]2)c1` [Compound 30], the MIC (in the assay on E. coli strain ATCC25922; in assay [1]) was not above 16 µg/mL each time.

`C[C@H](N)CCCc1cc(Cl)c(F)c(-c2cc3cn(-c4ccc(CN[C@@H](C)CCNC(=N)N)c(CC(=O)O)c4)c(=O)nc3[nH]2)c1` [Compound 1]: the MIC in the assay with E. coli strain ATCC25922 is more than 16 µg/mL; in assay [1], not above 16 µg/mL.

As for `CSC[C@@H](CCNC(=N)N)NCc1ccc(-n2cc3cc(-c4cc(CCC[C@H](C)N)cc(Cl)c4F)[nH]c3nc2=O)cc1` [Compound 24], the MIC (in the assay on E. coli strain ATCC25922; in assay [1]) was not above 16 µg/mL throughout.

Turning to `CSc1cc(-n2cc3cc(-c4cc(CCC[C@H](C)N)cc(Cl)c4F)[nH]c3nc2=O)ccc1CO[C@H](CCNC(=N)N)CNC(=N)N` [Compound 31], the MIC (against E. coli strain ATCC25922; in assay [1]) was not above 16 µg/mL throughout.

In the case of `C[C@H](N)CCCc1cc(Cl)c(F)c(-c2cc3cn(-c4ccc(C(=O)N[C@H](CCNC(=N)N)CNC(=N)N)cc4)c(=O)nc3[nH]2)c1` [Compound 19], the MIC (against E. coli strain ATCC25922; in assay [1]) was not above 16 µg/mL each time.

`C[C@H](N)CCCc1cc(Cl)c(F)c(-c2cc3cn(-c4ccc(CN[C@@H](C)CCNC(=N)N)c(N(C)C)c4)c(=O)nc3[nH]2)c1` [Compound 11]: the MIC (with E. coli strain ATCC25922; in assay [1]) was not above 16 µg/mL each time.

As for `COc1cc(-n2cc3cc(-c4cc(CCC[C@H](C)N)cc(Cl)c4F)[nH]c3nc2=O)ccc1CO[C@H](CCNC(=N)N)CNC(=N)N` [Compound 32], the MIC (against E. coli strain ATCC25922; in assay [1]) was not above 16 µg/mL throughout.

As to `C[C@H](NCCCNC(=N)N)c1ccc(-n2cc3cc(-c4cc(CCC[C@@H](N)C(F)(F)F)cc(Cl)c4F)[nH]c3nc2=O)cc1` [Compound 26], the MIC with E. coli strain ATCC25922 is more than 16 µg/mL; in assay [1] it was not above 16 µg/mL.

As to `C[C@H](N)CCCc1cc(Cl)c(F)c(-c2cc3cn(-c4ccc(C(=O)N[C@@H](CO)CCNC(=N)N)cc4)c(=O)nc3[nH]2)c1` [Compound 10], the MIC (against E. coli strain ATCC25922; in assay [1]) was not above 16 µg/mL in each case.

For `C[C@H](N)CCCc1cc(Cl)c(F)c(-c2cc3cn(-c4ccc([C@@H](NCCCNC(=N)N)C(F)(F)F)cc4)c(=O)nc3[nH]2)c1` [Compound 27], the MIC (with E. coli strain ATCC25922; in assay [1]) was not above 16 µg/mL throughout.

With `C[C@H](N)CCCc1cc(Cl)c(F)c(-c2cc3cn(-c4ccc([C@@H](NCCCNC(=N)N)C(F)F)cc4)c(=O)nc3[nH]2)c1` [Compound 28], the MIC (against E. coli strain ATCC25922; in assay [1]) was not above 16 µg/mL each time.

For `C[C@H](N)CCCc1cc(Cl)c(F)c(-c2cc3cn(-c4ccc([C@H]5CNC[C@@H](CCNC(=N)N)N5)cc4)c(=O)nc3[nH]2)c1` [Compound 17], the MIC (against E. coli strain ATCC25922; in assay [1]) was not above 16 µg/mL in each case.

Take `CNC(=O)Cc1cc(-n2cc3cc(-c4cc(CCC[C@H](C)N)cc(Cl)c4F)[nH]c3nc2=O)ccc1CN[C@@H](C)CCNC(=N)N` [Compound 2]: the MIC (with E. coli strain ATCC25922; in assay [1]) was not above 16 µg/mL each time.

Take `C[C@H](N)CCCc1cc(Cl)c(F)c(-c2cc3cn(-c4ccc(C(=O)N[C@H](CCNC(=N)N)CNc5ccccn5)cc4)c(=O)nc3[nH]2)c1` [Compound 21]: the MIC (against E. coli strain ATCC25922; in assay [1]) was not above 16 µg/mL in each case.

As for `C[C@H](N)CCCc1cc(Cl)c(F)c(-c2cc3cn(-c4ccc(C(=O)N[C@@H](CN)CCNC(=N)N)cc4)c(=O)nc3[nH]2)c1` [Compound 25], the MIC (with E. coli strain ATCC25922; in assay [1]) was not above 16 µg/mL throughout.

As to `C[C@H](N)CCCc1cc(Cl)c(F)c(-c2cc3cn(-c4ccc(C(=O)N[C@@H](C)CCNC(=N)N)cc4)c(=O)nc3[nH]2)c1` [Compound 9], the MIC (in the assay on E. coli strain ATCC25922; in assay [1]) was not above 16 µg/mL each time.

For the molecule `C[C@H](N)CCCc1cc(Cl)c(F)c(-c2cc3cn(-c4ccc(CN[C@@H](C)CCNC(=N)N)c([N+](=O)[O-])c4)c(=O)nc3[nH]2)c1` [Compound 8], the MIC (against E. coli strain ATCC25922; in assay [1]) was not above 16 µg/mL each time.

Regarding `C[C@H](N)CCCc1cc(Cl)c(F)c(-c2cc3cn(-c4ccc([C@@H]5CNC[C@H](CCNC(=N)N)N5)cc4)c(=O)nc3[nH]2)c1` [Compound 22], the MIC (in the assay on E. coli strain ATCC25922; in assay [1]) was not above 16 µg/mL throughout.

As for `C[C@H](N)CCCc1cc(Cl)c(F)c(-c2cc3cn(-c4ccc(C(=O)N[C@H](CCNC(=N)N)CNc5ncc[nH]5)cc4)c(=O)nc3[nH]2)c1` [Compound 15], the MIC (against E. coli strain ATCC25922; in assay [1]) was not above 16 µg/mL in each case.

Turning to `C[C@H](N)CCCc1cc(Cl)c(F)c(-c2cc3cn(-c4ccc([C@@H]5CNC[C@@H](CCNC(=N)N)N5)cc4)c(=O)nc3[nH]2)c1` [Compound 23], the MIC (in the assay with E. coli strain ATCC25922; in assay [1]) was not above 16 µg/mL each time.

On to `C=C[C@@H](CCNC(=N)N)NC(=O)c1ccc(-n2cc3cc(-c4cc(CCC[C@H](C)N)cc(Cl)c4F)[nH]c3nc2=O)cc1` [Compound 20], for which the MIC (against E. coli strain ATCC25922; in assay [1]) was not above 16 µg/mL each time.
